{"source": "patent US8871794B2", "about": "“Small-molecule agonists for type-2 orexin receptor” (Board of Regents, The University of Texas System, priority 2008, dated 2014)", "key": {"[1]": {"biological_target": "T1, GRP receptor (Homo sapiens, UniProt P30550)", "T1 construct": "Open reading frames of OX1R, OX2R and GRP (control) receptor were inserted into a bicistronic retrovirus expression vector; expressed in transfected cells; host or cells: CHO cells harboring ecotropic retroviral receptor, infected with retrovirus and selected with puromycin", "T1 sequence (P30550 whole entry)": "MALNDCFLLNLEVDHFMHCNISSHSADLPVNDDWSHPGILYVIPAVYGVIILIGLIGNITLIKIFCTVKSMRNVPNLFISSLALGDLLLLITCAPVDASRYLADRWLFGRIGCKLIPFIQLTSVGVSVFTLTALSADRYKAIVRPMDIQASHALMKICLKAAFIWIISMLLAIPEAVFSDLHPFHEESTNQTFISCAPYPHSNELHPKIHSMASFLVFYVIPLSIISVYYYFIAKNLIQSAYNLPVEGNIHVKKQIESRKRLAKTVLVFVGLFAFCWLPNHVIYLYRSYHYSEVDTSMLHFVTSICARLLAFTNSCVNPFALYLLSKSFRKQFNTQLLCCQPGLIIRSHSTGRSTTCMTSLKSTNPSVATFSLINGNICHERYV", "experiment": "Intracellular Calcium Transient Assay in CHO cells expressing control GRP receptor", "assay_type": "cell-based", "conditions": "cells expressing an unrelated Gq-coupled GPCR (GRP receptor)", "description": "(§1) DNA Construction: Open reading frames of OX1R, OX2R and GRP (control) receptor were inserted into a bicistronic retrovirus expression vector, pMXs-IRES-puror (pMXs-IP), which carried a FLAG™ epitope cDNA sequence at the beginning of the ORF sequences encoding their human polypeptides.\n(§2) Transfection and retrovirus production: Transfection was carried out using FuGENE 6 (Roche Diagnostics Corp.) according to the manufacturer's recommendations. Retroviruse fluid was harvested after 48 hours post transfection.\n(§3) Cell lines: To generate receptor expressing cells, CHO cells harboring ecotropic retroviral receptor were infected with a retroviral supernatant. After 24 hours post infection, the retrovirus supernatant was removed and infected cells were selected with 10 μg/ml of puromycin (Sigma-Aldrich, St. Louis, Mo.). […]\n(§4) 0.5 ml aliquot of the cell suspension was stimulated by addition of 5 μl of compound dissolved in DMSO. Changes of [Ca^2+]i transients in cells were measured at RT by using CAF-110 Intracellular Ion Analyser (JASCO, Tokyo) with the excitation wave lengths of 340 nm and 380 nm and emission wavelength of 500 nm"}, "[2]": {"experiment": "Metabolism in mouse CD-1 S9 fractions (phase I, phase I+II)", "assay_type": "in vitro ADME", "conditions": "for half-life at 2 μM: CD-1, mouse, S9 fractions (hepatocyte S9)", "description": "Metabolism: 2 μM Yan7874 was incubated in 1 ml 0.1 M Tris/0.5% NaHCO3/3 mm MgCl2 solution with 1 mg mouse CD-1 S9 protein (In Vitro Technologies, Baltimore, Md.) at 37° C. Cofactors necessary for phase I and II metabolism were added as recommended by In Vitro Technologies (phase I: 1.7 mg/ml NADP, 7.8 mg/ml glucose-6-phophate, 6 U/ml glucose-6-phosphate dehydrogenase; phase II additionally add 1.9 mg/ml uridine 5′-diphospho-α-D-glucuronic acid and 100 μg/ml 3′-phosphoadenosine-5′-phophosulphate). Protein was precipitated by the addition of 1 volume of methanol. Samples in 50:50 buffer:methanol+0.1% added formic acid were analyzed as follows. An analytical method was developed to detect Yan7874 using LC/MS/MS. […] The fraction of parent compound remaining was plotted over time and a curve fit to the data. The time at which 50% of compound remains is designated the in vitro half-life."}, "[3]": {"experiment": "IP pharmacokinetics in C57BL/6 mice (plasma and brain)", "assay_type": "in vivo, mouse", "conditions": "30 mg/kg IP, one of the two mice"}, "[4]": {"biological_target": "T2, OX2R (Homo sapiens, UniProt O43614)", "T2 sequence (O43614 1-444)": "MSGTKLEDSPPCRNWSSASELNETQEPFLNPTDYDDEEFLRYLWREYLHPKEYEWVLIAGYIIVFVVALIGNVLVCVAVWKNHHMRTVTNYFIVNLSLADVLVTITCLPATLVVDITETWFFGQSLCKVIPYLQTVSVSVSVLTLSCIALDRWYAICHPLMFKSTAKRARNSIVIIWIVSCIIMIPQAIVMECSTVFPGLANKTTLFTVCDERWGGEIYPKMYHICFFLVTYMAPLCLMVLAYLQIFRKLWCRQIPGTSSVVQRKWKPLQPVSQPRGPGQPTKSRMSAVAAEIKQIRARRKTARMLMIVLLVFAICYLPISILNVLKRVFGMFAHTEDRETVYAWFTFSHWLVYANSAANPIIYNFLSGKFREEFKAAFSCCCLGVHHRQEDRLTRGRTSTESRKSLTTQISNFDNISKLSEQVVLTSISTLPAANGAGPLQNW", "experiment": "NFAT-luciferase transcriptional reporter assay in transiently co-transfected HEK293T cells", "assay_type": "cell-based", "parameters": "expressed in transfected cells; host or cells: HEK293T cells, transient co-transfection"}, "[5]": {"biological_target": "T2, OX2R", "experiment": "Intracellular Calcium Transient Assay in OX2R-expressing CHO cells", "assay_type": "cell-based", "parameters": "expressed in transfected cells", "description": "as §1, §2, §3, §4"}, "[6]": {"biological_target": "T2, OX2R", "experiment": "CRE reporter assay, OX2R", "assay_type": "cell-based", "parameters": "expressed in transfected cells; host or cells: HEK293T cells, transient co-transfection"}}, "note": "Read-outs that look alike come from different tables or passages of the source."}
{"smiles": "Cc1ccc(Cn2c(=N)n(CC(O)c3ccc(Cl)c(Cl)c3)c3ccccc32)cc1", "note": "(centres unmarked) [Compound 130699]", "values": [{"measurement": "Ca2+ response", "setting": "[1]", "value": "no response"}, {"measurement": "stability in vitro using hepatocyte S9 fractions", "setting": "[2]; 2 μM, mouse CD-1 S9, 37° C.", "value": "relatively stable"}, {"measurement": "half-life at 2 μM", "setting": "[2]; Phase I+II, read-out: half-life for in vitro combined Phase I+II metabolism in S9 fractions", "value": 0.933, "unit": "h"}, {"measurement": "half-life at 2 μM", "setting": "[2]; Phase I, read-out: half-life for in vitro Phase I metabolism in S9 fractions", "value": 1.13, "unit": "h"}, {"measurement": "acute reaction after injection", "setting": "[3]", "value": "abdominal guarding and decreased activity for up to one hour"}, {"measurement": "activation in transcriptional reporter assays", "setting": "[4]; HEK293T cells, NFAT-luciferase reporter plasmid and receptor cDNA plasmid", "value": "dramatic activation"}, {"measurement": "Fold Induction, OX2R_NFTA (1)", "setting": "[4]; assay (1)", "value": 10.94}, {"measurement": "Fold Induction, OX2R_NFTA (2)", "setting": "[4]; assay (2)", "value": 35.566}, {"measurement": "Ca2+ response", "setting": "[5]", "value": "robust Ca2+ response"}, {"measurement": "reporter activation in a distinct CRE reporter system", "setting": "[6]", "value": "confirmed reporter activation"}, {"measurement": "Fold Induction, OX2R_CRE", "setting": "[6]; CRE reporter", "value": 5.1935}]}
